Assay [1] deals with pseudo-normal human embryonic liver cell line (L02). Briefly: MTT assay, pseudo-normal L02 cells. Conditions: L02, 100 µM, mean ± SD of three independent experiments. Format: cell-based. As to the method:
(§1) Methods for in vitro anti-proliferative assay [Cell lines]: In the current investigation, hepatocellular carcinoma cell lines (HEPG-2), human lung carcinoma (A549) and human breast carcinoma cell line (MCF-7) and pseudo-normal human embryonic liver cellline (L02) were used for antiproliferative activity, the cell lines were obtained from NCL, Pune. The growth medium used is the DMEM (Dulbecco's modified Eagle's growth medium) having 10% FBS (fetal bovine serum), 10 µg/ml of insulin (Sigma) and 1% penicillin/streptomycin. The used reagents and chemicals were purchased from Sigma or Invitrogen. 100 µl of each compound was added to cells with density of 1.2 – 1.8 × 10,000 cells/well containing 100 µl growth medium in a 96-well plate for 24 h previous to performing the MTT assay.
(§2) MTT assay: MTT (3-[4,5-dimethylthiazole-2-yl]-2,5-diphenyltetrazolium bromide) was used to determine the anti-proliferative activity. Cells were incubated in a moist environment for 24 hours at 37℃. The cells were then treated with various concentrations of the studied substances (0.01, 0.1, 1.0, 10, 50, 100 µM). The media was removed, and the cells were treated for 2 hours with a 5% MTT ([…]) solution/well, allowing the dye to metabolize to colored-insoluble formazan crystals. The remaining solution was discarded and acidified isopropanol was then added for around 30 minutes to dissolve the formazan crystals, which were encased in aluminum foil at room temperature. The absorbance of each well was measured at 450 nm using an Elisa reader. The cell viability was expressed as a percentage of control, and the GI50 was calculated using Graph Pad Prism program (Graph Pad software Inc, CA).

Assay [2] has as its system human breast carcinoma cell line (MCF-7). The assay is described as follows: MTT anti-proliferative assay, MCF-7. The assay is classed as cell-based. Conditions: MCF7, MCF-7, MTT, mean ± SD of three independent experiments, read-out: Growth inhibition, GI50. On the procedure:
as §1, §2

Assay [3] deals with human lung carcinoma cell line (A549). The assay is described as follows: MTT anti-proliferative assay, A549. Conditions: mean ± SD of three independent experiments, read-out: Growth inhibition, GI50. Format: cell-based. As to the method: as §1, §2
In assay [4] the test system is hepatocellular carcinoma cell lines (HEPG-2). Briefly: MTT anti-proliferative assay, HepG-2. The assay is classed as cell-based, human. Conditions: mean ± SD of three independent experiments, read-out: Growth inhibition, GI50. As to the method:
as §1, §2

The test system of assay [5] is breast carcinoma cell line (MCF-7). Briefly: Annexin V-FITC/PI assay (flow cytometry). Format: cell-based, human. Conditions: 24 h. On the procedure: The early stages of apoptosis were monitored by Annexin V-FITC (apoptotic cell marker) and PI (necrotic cell marker) double staining. The staining method was used according to the Annexin FITC/PI staining kit (Invitrogen™, Thermo Fisher Scientific Inc.). Annexin V- FITC/PI assay was performed to inspect the extent of programmed cell death (Fig. 3, apoptosis) by the compounds 4c, 4j and 8f on breast carcinoma cell line (MCF-7). The cells were treated with increasing concentrations (5–10 μM) for 24 h and analyzed by flow cytometry.
Annexin V-FITC/PI Assay: The early stages of apoptosis were monitored by Annexin V-FITC (apoptotic cell marker) and PI (necrotic cell marker) double staining. The staining method was used according to the Annexin FITC/PI staining kit (Invitrogen™, Thermo Fisher Scientific Inc.). Briefly, cells were washed in PBS twice and resuspended in 500 μl of PBS plus Annexin V-FITC and PI. For each sample at least 1×10^4 cells should be analysed using an FACS cytometer.

Where [6] appears, read: Homo sapiens, HepG2, HepG-2, MTT.

Like-named read-outs stand apart in the source and are kept apart here.

As for `O=C(CCl)Nc1nc(-c2cccc([N+](=O)[O-])c2)cs1` [4h], in assay [1], testing at 100 µM gave an inhibition of 18.4 ± 0.34%. Besides, the GI50 in assay [2] is 38.15 ± 0.27 µM; in assay [3] (Homo sapiens, A549, A549, MTT) it was 28.6 ± 0.47 µM; in assay [4] (setting [6]), 25.81 ± 0.23 µM.

With `CCOC(=O)c1sc(NC(=O)CCl)nc1C` [4l], in assay [1], the inhibition at 100 µM worked out at 26 ± 0.47%. Also, the GI50 in assay [2] is 37.26 ± 0.37 µM; in assay [3] (Homo sapiens, A549, A549, MTT), 32.9 ± 0.46 µM; in assay [4] (setting [6]), 29.8 ± 0.34 µM.

In the case of `O=C(CCl)Nc1nc(-c2ccc(Cl)cc2)cs1` [4c], 100 µM produced 18.4 ± 0.48% inhibition in assay [1]. Also, the Q3 live cells in assay [5] (MCF-7, 5 μM) is 62.43%; in assay [5] (MCF-7, 10 μM), 42.19%. Also, the GI50 in assay [2] amounted to 2.63 ± 0.14 µM; in assay [3] (Homo sapiens, A549, A549, MTT) it was 3.86 ± 0.22 µM; in assay [4] (setting [6]) it was 3.92 ± 0.17 µM.

In turn, `COc1cccc(-c2csc(NC(=O)CCl)n2)c1` [4j] returned an inhibition at 100 µM in assay [1] of 17.3 ± 0.23%. The “Q2 late apoptotic cells” value in assay [5] (MCF-7, 5 μM) was 34.84%; in assay [5] (MCF-7, 10 μM) it was 40.33%. The Q3 live cells in assay [5] (MCF-7, 5 μM) is 42.81%; in assay [5] (MCF-7, 10 μM), 32.80%. The GI50 stood at 1.82 ± 0.21 µM in assay [2]; 2.61 ± 0.12 µM in assay [3] (Homo sapiens, A549, A549, MTT); 2.38 ± 0.24 µM in assay [4] (setting [6]).

Turning to `O=C(CCl)Nc1nc(-c2cc3ccccc3oc2=O)cs1` [4k], in assay [1], testing at 100 µM gave an inhibition of 23 ± 0.35%. Further, the concentration for 50% growth inhibition (GI50) in assay [2] is 26.4 ± 0.28 µM; in assay [3] (Homo sapiens, A549, A549, MTT), 25.3 ± 0.39 µM; in assay [4] (setting [6]), 14.3 ± 0.28 µM.

For the compound `O=C(CCl)Nc1nc(-c2ccccc2)cs1` [4a], in assay [1], the inhibition at 100 µM stood at 21.6 ± 0.43%. Further, the GI50 in assay [2] was found to be 23.8 ± 0.24 µM; in assay [3] (Homo sapiens, A549, A549, MTT), 18.7 ± 0.41 µM; in assay [4] (setting [6]) it was 12.9 ± 0.25 µM.

Turning to `COc1ccc(-c2csc(NC(=O)CCl)n2)cc1` [4d], the inhibition at 100 µM in assay [1] was 12.8 ± 0.22%. In addition, the GI50 in assay [2] came to 26.5 ± 0.32 µM; in assay [3] (Homo sapiens, A549, A549, MTT) it was 15.4 ± 0.23 µM; in assay [4] (setting [6]), 8.37 ± 0.23 µM.

Regarding `Nc1nnc(SCC(=O)Nc2nc(-c3ccc(Cl)cc3)cs2)s1` [8c, 2-(5-amino-1,3,4-thiadiazol-2-ylthio)-N-(4-(4-chlorophenyl)thiazol-2-yl) acetamide], the inhibition at 100 µM in assay [1] turned out to be 18.2 ± 0.22%. In addition, the 50% growth inhibitory concentration (GI50) in assay [2] was determined as 20.7 ± 0.36 µM; in assay [3] (Homo sapiens, A549, A549, MTT) it was 7.86 ± 0.24 µM; in assay [4] (setting [6]), 4.12 ± 0.18 µM.

In the case of `Nc1nnc(SCC(=O)Nc2nc(-c3ccc([N+](=O)[O-])cc3)cs2)s1` [8f, 2-(5-amino-1,3,4-thiadiazol-2-ylthio)-N-(4-(4-nitrophenyl)thiazol-2-yl) acetamide], in assay [1], the inhibition at 100 µM is 20.6 ± 0.37%. Further, the Q1 necrotic cells in assay [5] (MCF-7, 5 μM) is 16.99%; in assay [5] (MCF-7, 10 μM), 12.44%. The “Q2 late apoptotic cells” value was 14.62% in assay [5] (MCF-7, 5 μM) and 37.15% in assay [5] (MCF-7, 10 μM). Further, the Q3 live cells in assay [5] (MCF-7, 5 μM) came out at 59.08%; in assay [5] (MCF-7, 10 μM), 46.14%. The GI50 in assay [2] came to 3.71 ± 0.26 µM; in assay [3] (Homo sapiens, A549, A549, MTT), 4.64 ± 0.23 µM; in assay [4] (setting [6]), 3.46 ± 0.13 µM.

`Cc1ccc(-c2csc(NC(=O)CSc3nnc(N)s3)n2)cc1` [8e, 2-(5-amino-1,3,4-thiadiazol-2-ylthio)-N-(4-p-tolylthiazol-2-yl) acetamide] came in with an inhibition at 100 µM in assay [1] of 23.8 ± 0.42%. For the same compound, the 50% growth inhibitory concentration (GI50) amounted to 28 ± 0.34 µM in assay [2]; 29.8 ± 0.37 µM in assay [3] (Homo sapiens, A549, A549, MTT); 18.3 ± 0.34 µM in assay [4] (setting [6]).

In assay [1], `COc1cccc2c1C(=O)c1c(O)c3c(c(O)c1C2=O)C[C@@](O)(C(=O)CO)C[C@@H]3O[C@H]1C[C@H](N)[C@H](O)[C@H](C)O1` [doxorubicin, reference compound] came in with an inhibition at 100 µM of 82.2 ± 1.26%. Also, the GI50 in assay [2] was found to be 4.15 ± 0.18 µM; in assay [3] (Homo sapiens, A549, A549, MTT), 3.26 ± 0.24 µM; in assay [4] (setting [6]), 3.87 ± 0.16 µM.

Regarding `Cc1ccc(-c2csc(NC(=O)CCl)n2)cc1` [4e], testing at 100 µM in assay [1] gave an inhibition of 15.9 ± 0.24%. Also, the GI50 in assay [2] was found to be 31.8 ± 0.46 µM; in assay [3] (Homo sapiens, A549, A549, MTT), 13.7 ± 0.34 µM; in assay [4] (setting [6]), 7.28 ± 0.16 µM.

Take `Nc1nnc(SCC(=O)Nc2nc(-c3ccc(Br)cc3)cs2)s1` [8b, 2-(5-amino-1,3,4-thiadiazol-2-ylthio)-N-(4-(4-bromophenyl)thiazol-2-yl) acetamide]: in assay [1], the inhibition at 100 µM amounted to 15.8 ± 0.28%. Also, the 50% growth inhibitory concentration (GI50) was 4.07 ± 0.19 µM in assay [2]; 18.4 ± 0.46 µM in assay [3] (Homo sapiens, A549, A549, MTT); 5.86 ± 0.24 µM in assay [4] (setting [6]).

The compound `O=C(CCl)Nc1nc(-c2ccc([N+](=O)[O-])cc2)cs1` [4f] gave an inhibition at 100 µM in assay [1] of 28.16 ± 0.27%. In addition, the 50% growth inhibitory concentration (GI50) in assay [2] was 29.4 ± 0.32 µM; in assay [3] (Homo sapiens, A549, A549, MTT), 19.2 ± 0.32 µM; in assay [4] (setting [6]), 18.9 ± 0.29 µM.

Take `COc1ccc(-c2csc(NC(=O)CSc3nnc(N)s3)n2)cc1` [8d, 2-(5-amino-1,3,4-thiadiazol-2-ylthio)-N-(4-(4-methoxyphenyl)thiazol-2-yl) acetamide]: the inhibition at 100 µM in assay [1] amounted to 21.8 ± 0.38%. For the same compound, the concentration for 50% growth inhibition (GI50) in assay [2] is 2.98 ± 0.15 µM; in assay [3] (Homo sapiens, A549, A549, MTT) it was 2.85 ± 0.18 µM; in assay [4] (setting [6]), 2.53 ± 0.1 µM.

In assay [1], `O=C(CCl)Nc1nc(-c2ccc(F)cc2)cs1` [4g] came in with an inhibition at 100 µM of 16.3 ± 0.21%. For the same compound, the GI50 in assay [2] is 36.7 ± 0.41 µM; in assay [3] (Homo sapiens, A549, A549, MTT) it was 17.5 ± 0.26 µM; in assay [4] (setting [6]) it was 22.7 ± 0.46 µM.

`Nc1nnc(SCC(=O)Nc2nc(-c3ccccc3)cs2)s1` [8a, 2-(5-amino-1,3,4-thiadiazol-2-ylthio)-N-(4-phenylthiazol-2-yl) acetamide] had an inhibition at 100 µM in assay [1] of 22.6 ± 0.42%. The concentration for 50% growth inhibition (GI50) in assay [2] was determined as 34.87 ± 0.31 µM; in assay [3] (Homo sapiens, A549, A549, MTT), 36.2 ± 0.39 µM; in assay [4] (setting [6]), 26.8 ± 0.28 µM.

`O=C(CCl)Nc1nc(-c2ccc(Br)cc2)cs1` [4b]: the inhibition at 100 µM in assay [1] is 17.8 ± 0.51%. Moreover, the GI50 was 2.97 ± 0.19 µM in assay [3] (A549, MTT); 3.86 µM in assay [3] (Homo sapiens, A549, A549, MTT); 3.62 ± 0.14 µM in assay [4] (HepG-2, MTT); 3.92 µM in assay [4] (setting [6]).

As for `O=C(CCl)Nc1nc(-c2cccc(Br)c2)cs1` [4i], in assay [1], the inhibition at 100 µM was 17.6 ± 0.38%. Besides, the GI50 was 33.74 ± 0.32 µM in assay [2]; 31.4 ± 0.36 µM in assay [3] (Homo sapiens, A549, A549, MTT); 16 ± 0.43 µM in assay [4] (setting [6]).
